Measured values reported in ChEMBL document CHEMBL1201862, “PubChem BioAssay data set” (2004).
The source made the active and inactive calls.

Assays:
CAAX prenyl protease 2 = CAAX prenyl protease 2 (Saccharomyces cerevisiae S288c, UniProt Q03530); assay type: biochemical
Hexokinase = Hexokinase (Trypanosoma brucei, UniProt Q38C41); test: Confirmation assay for inhibitors of Trypanosoma brucei hexokinase 1-Analogue-first series. [Related pubchem assays (depositor defined):AID1430, AID1632, AID2516, AID2560, AID2579, AID2600, AID449725, AID492951]; assay type: functional
[1] = biological target: Dual specificity tyrosine-phosphorylation-regulated kinase 1A (Rattus norvegicus, UniProt Q63470); assay type: biochemical, Homo sapiens
[2] = biological target: T1, Small ubiquitin-related modifier 2 (Homo sapiens, UniProt P61956); test: disruption of SUMO2 interaction with SIM peptide – biochemical, fluorescence polarization, uHTS hits, selectivity assay for SUMO1 interaction inhibitor project, dose response (AID 624385); assay type: functional; conditions: read-out: IC50_Mean
Protein RecA = biological target: T2, Protein RecA (Mycobacterium tuberculosis, UniProt P9WHJ3); test: Fluorescence Cell-Free Homogeneous Dose Retest to Identify Inhibitors of RecA-Intein Splicing Activity. [Related pubchem assays (depositor defined):AID2097, AID2223, AID489010, AID492950]; assay type: functional
T2 sequence (P9WHJ3 whole entry): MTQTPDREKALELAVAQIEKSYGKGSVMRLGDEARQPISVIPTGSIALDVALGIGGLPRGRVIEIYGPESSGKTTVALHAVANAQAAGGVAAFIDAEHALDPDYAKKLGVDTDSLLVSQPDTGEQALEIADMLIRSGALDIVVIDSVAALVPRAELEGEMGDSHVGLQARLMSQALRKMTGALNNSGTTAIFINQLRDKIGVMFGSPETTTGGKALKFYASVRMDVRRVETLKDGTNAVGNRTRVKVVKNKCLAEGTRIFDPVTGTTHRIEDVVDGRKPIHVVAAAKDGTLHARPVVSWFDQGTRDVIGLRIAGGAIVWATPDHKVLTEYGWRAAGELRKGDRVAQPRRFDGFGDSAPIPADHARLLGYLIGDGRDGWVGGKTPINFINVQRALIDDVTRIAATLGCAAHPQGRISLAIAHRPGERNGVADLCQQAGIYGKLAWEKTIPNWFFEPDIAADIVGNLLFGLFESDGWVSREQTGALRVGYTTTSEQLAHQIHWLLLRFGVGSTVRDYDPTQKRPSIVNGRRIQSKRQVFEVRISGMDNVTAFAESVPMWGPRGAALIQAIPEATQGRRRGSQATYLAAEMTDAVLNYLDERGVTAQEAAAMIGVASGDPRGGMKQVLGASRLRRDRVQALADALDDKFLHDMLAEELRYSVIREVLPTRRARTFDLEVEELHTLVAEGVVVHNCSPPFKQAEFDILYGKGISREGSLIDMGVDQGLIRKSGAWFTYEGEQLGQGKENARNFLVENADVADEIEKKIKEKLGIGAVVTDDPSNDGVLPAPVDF

[3] = biological target: T3, Small ubiquitin-related modifier 1 (Homo sapiens, UniProt P63165); test: SUMO1 protein-protein binding blockers, potency – biochemical, FRET, dose response (AID 624383); assay type: functional; conditions: read-out: IC50_Mean
Genome polyprotein = Genome polyprotein (dengue virus type 2, UniProt P29990); test: flavivirus cap methylation enzyme inhibition – biochemical, confirmation dose response, primary screen (AID 588689); assay type: functional
[4] = biological target: T3, Small ubiquitin-related modifier 1; test: SUMO1 protein interaction blockers, potency – biochemical, fluorescence polarization, uHTS hits, dose response (AID 624382); assay type: functional; conditions: read-out: IC50_Mean
[5] = CCR5-tropic HIV-1 fusion blockers – cell-based, CCR5-tropic Env, dose response (AID 2279); assay type: functional
Vero = test: viability of Vero cells under compound – cytotoxicity control for flavivirus capping enzyme inhibitors (AID 588742); assay type: functional; conditions: Chlorocebus sabaeus
[6] = biological target: T4, Replicative DNA helicase DnaB (Mycobacterium tuberculosis, UniProt P9WMR3); test: DnaB intein splicing inhibitors, dose response, biochemical, cell-free fluorescence (AID 449749); assay type: functional
T4 sequence (P9WMR3 whole entry): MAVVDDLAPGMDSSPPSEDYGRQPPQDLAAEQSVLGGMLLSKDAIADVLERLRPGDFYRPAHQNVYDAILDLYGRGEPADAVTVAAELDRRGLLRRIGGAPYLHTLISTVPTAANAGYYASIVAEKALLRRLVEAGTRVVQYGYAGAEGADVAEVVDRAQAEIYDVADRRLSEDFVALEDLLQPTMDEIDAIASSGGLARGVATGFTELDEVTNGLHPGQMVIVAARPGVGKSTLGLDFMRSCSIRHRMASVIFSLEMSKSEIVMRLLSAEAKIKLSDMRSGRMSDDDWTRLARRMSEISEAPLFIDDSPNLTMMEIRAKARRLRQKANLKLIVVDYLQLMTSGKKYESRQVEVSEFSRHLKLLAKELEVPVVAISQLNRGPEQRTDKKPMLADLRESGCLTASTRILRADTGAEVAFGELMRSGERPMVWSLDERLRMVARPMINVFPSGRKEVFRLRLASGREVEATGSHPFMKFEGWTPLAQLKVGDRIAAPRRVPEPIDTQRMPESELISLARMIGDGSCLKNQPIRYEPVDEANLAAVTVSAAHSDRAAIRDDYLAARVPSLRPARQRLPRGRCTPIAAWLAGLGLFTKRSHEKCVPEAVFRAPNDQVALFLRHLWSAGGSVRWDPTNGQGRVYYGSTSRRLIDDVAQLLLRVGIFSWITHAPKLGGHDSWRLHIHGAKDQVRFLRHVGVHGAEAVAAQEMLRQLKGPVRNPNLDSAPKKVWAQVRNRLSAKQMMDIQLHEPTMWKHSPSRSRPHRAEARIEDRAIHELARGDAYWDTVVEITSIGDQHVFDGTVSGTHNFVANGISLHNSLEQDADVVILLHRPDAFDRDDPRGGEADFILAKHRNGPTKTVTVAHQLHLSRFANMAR

[7] = biological target: T1, Small ubiquitin-related modifier 2; test: SUMO2 binding disruption by SUMO1 hits – biochemical, FRET, human SUMO2, uHTS hits, selectivity assay for SUMO1 interaction inhibitor project, dose response (AID 624384); assay type: functional; conditions: read-out: IC50_Mean
Troponin, cardiac muscle = Troponin, cardiac muscle (Homo sapiens, UniProt P19429+P45379+P63316); test: compounds desensitizing RTF to calcium – biochemical, fluorescence, cardiac regulated thin filaments, triplicate IC50, dose response (AID 504742); assay type: protein-complex assay
[8] = biological target: Alkaline phosphatase, placental type (Homo sapiens, UniProt P05187); test: human placental alkaline phosphatase inhibition – biochemical, luminescence, confirmation (AID 1512); assay type: functional
[9] = biological target: T5, Alkaline phosphatase, tissue-nonspecific isozyme (Homo sapiens, UniProt P05186); test: potency against alkaline phosphatase TNAP – biochemical, luminescent, dose response, SAR follow-up (AID 1056)
T5 sequence (P05186 whole entry): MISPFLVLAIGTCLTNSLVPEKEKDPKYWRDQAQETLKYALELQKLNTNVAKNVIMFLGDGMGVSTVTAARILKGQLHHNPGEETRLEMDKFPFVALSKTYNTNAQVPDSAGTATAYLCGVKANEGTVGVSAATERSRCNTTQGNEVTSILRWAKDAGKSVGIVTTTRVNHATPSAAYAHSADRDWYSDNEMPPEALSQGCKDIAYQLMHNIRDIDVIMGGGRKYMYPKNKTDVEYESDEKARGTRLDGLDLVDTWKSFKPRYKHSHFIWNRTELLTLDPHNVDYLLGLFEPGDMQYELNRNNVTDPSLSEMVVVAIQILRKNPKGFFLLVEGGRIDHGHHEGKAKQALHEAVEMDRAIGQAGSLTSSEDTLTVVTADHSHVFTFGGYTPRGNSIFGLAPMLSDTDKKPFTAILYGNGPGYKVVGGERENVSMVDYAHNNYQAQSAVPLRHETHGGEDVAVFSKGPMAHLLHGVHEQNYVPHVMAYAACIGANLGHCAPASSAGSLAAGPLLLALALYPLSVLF

Phosphomannomutase 2 = Phosphomannomutase 2 (Homo sapiens, UniProt O15305); test: Counter screen SAR assay for PMM2 inhibitors via a fluorescence intensity assay. [Related pubchem assays (depositor defined):AID1545, AID1574]
[10] = biological target: T6, Mannose-6-phosphate isomerase (Homo sapiens, UniProt P34949); test: phosphomannose isomerase inhibition – biochemical, fluorescence intensity, confirmation (AID 1535)
T6 sequence (P34949 whole entry): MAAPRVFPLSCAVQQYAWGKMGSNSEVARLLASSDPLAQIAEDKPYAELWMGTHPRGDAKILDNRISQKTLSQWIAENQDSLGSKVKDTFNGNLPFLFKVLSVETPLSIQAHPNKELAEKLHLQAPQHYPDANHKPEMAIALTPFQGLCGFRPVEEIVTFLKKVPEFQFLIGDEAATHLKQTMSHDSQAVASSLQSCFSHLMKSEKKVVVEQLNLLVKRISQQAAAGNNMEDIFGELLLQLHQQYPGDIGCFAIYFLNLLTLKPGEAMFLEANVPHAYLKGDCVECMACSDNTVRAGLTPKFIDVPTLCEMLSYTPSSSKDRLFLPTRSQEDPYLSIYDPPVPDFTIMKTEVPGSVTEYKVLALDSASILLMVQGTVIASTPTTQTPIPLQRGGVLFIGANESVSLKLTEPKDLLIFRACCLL

[11] = biological target: Delta-type opioid receptor (Homo sapiens, UniProt P41143); test: SAR Analysis of Antagonists of the DOR Receptor using an Image-Based Assay - Set 3. [Related pubchem assays (depositor defined):AID1777, AID1785]; assay type: functional;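 also: U2OS cells expressing DOR1 and beta-arrestin GFP stimulated with 100 nM SNC80; imaging of GFP-tagged beta-arrestin moving into spots after receptor activation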
Mu-type opioid receptor = Mu-type opioid receptor (Homo sapiens, UniProt P35372); test: SAR Analysis of Antagonists of the MOR Receptor using an Image-Based Assay - Set 3. [Related pubchem assays (depositor defined):AID1777, AID1785, AID1786, AID1966, AID2133, AID2136, AID2284, AID2285, AID2420]; assay type: functional
[12] = biological target: T7, Kappa-type opioid receptor (Homo sapiens, UniProt P41145); test: SAR analysis of Antagonists of the Kappa Opioid Receptor (KOR) using an Image-Based Assay - Set 4. [Related pubchem assays (depositor defined):AID1777, AID1785]; assay type: functional
[13] = biological target: T7, Kappa-type opioid receptor; test: SAR analysis of small molecule antagonists of the kappa opioid receptor via a luminescent beta-arrestin assay - Set 6. [Related pubchem assays (depositor defined):AID1777, AID1778, AID1785, AID1786, AID1966, AID2133, AID2136, AID2285]; assay type: functional
[14] = biological target: T7, Kappa-type opioid receptor; test: SAR analysis of small molecule antagonists of the kappa opioid receptor via a luminescent beta-arrestin assay - Set 3. [Related pubchem assays (depositor defined):AID1777, AID1778, AID1785, AID1786, AID1966, AID2133, AID2136, AID2285, AID2495]; assay type: functional
[15] = biological target: T7, Kappa-type opioid receptor; test: SAR analysis of Antagonists of the Kappa Opioid Receptor (KOR) using an Image-Based Assay - Set 3. [Related pubchem assays (depositor defined):AID1777, AID1785]; assay type: functional
Integrin alpha-L = Integrin alpha-L (Mus musculus, UniProt P24063); test: modulators of CD8 T cell-vesicle binding, dose response, powder samples, mouse 2C CD8+ cells (AID 504565); assay type: functional
[16] = biological target: 1-acylglycerol-3-phosphate O-acyltransferase ABHD5/Perilipin-5 (Homo sapiens, UniProt Q00G26+Q8WTS1); test: Luminescence-based biochemical high throughput dose response assay for inhibitors of the interaction of the lipase co-activator protein, abhydrolase domain containing 5 (ABHD5) with perilipin-5 (MLDP; PLIN5) (2K validation set). [Related pubchem assays (depositor defined):AID493035, AID493241]
Perilipin-1/ABHD5 = Perilipin-1/ABHD5 (Homo sapiens, UniProt O60240+Q8WTS1); test: Luminescence-based biochemical high throughput dose response assay for inhibitors of the interaction of the lipase co-activator protein, abhydrolase domain containing 5 (ABHD5) with perilipin-1 (PLIN1) (2K validation set). [Related pubchem assays (depositor defined):AID493027, AID493057]

With `O=C(CCNC(=O)N1CC(=O)Nc2ccccc21)NCCc1cccc(F)c1` the AC50 (CAAX prenyl protease 2) was 0.359 µM (active).
In the case of `CC(C)(C)c1ccc(C(=O)Nc2cc(Cl)ccc2-c2nnn[nH]2)cc1`, the IC50 (Hexokinase) is reported as 3.46 µM (active).
With `O=[N+]([O-])c1cc([N+](=O)[O-])c2oc(-c3ccccc3)c(Br)c2c1O` the AC50 [1] was 1.94 µM (active), the IC50 [2] was 3.44 µM (active) and the EC50 (Protein RecA) was 111 µM (active). For the same compound, the IC50 [3] was 50.9 µM (inactive), the IC50 (Genome polyprotein) was 43.8 µM (active) and the IC50 [4] was 4.09 µM (active). The IC50 [5] was 16.3 µM (active), the CC50 (Vero) was 17.9 µM (active) and the AC50 [6] was 3.08 µM (active). For the same compound, the IC50 [7] was > 66 µM (inactive) and the IC50 (Troponin, cardiac muscle) was > 23.8 µM (inactive).
With `O=C(NC1(C(Cl)(Cl)Cl)Oc2ccccc2O1)OCN1C(=O)C2C=CC=CC2C1=O` (centres undefined) the IC50 [8] was > 100 µM (inactive) and the IC50 [9] was > 100 µM (inactive).
In the case of `Cc1csc(-n2sc3ccccc3c2=O)n1`, the IC50 (Phosphomannomutase 2) is reported as > 100 µM (inactive) and the IC50 [10] is reported as > 50 µM (inactive).
In the case of `Cc1ccnc2c1n1cccc1c(=O)n2CC(=O)NCCCN1CCN(c2ccc(Cl)cc2)CC1`, the IC50 [11] is reported as > 32 µM (inactive), the IC50 (Mu-type opioid receptor) is reported as > 32 µM (inactive) and the IC50 [12] is reported as 0.0696 µM (active). The IC50 [13] was 1.01 µM (active) and the IC50 [14] was 0.363 µM (active).
In the case of `CCN(CCNC(=O)c1ccc(CNS(=O)(=O)c2ccc(OC)cc2)cc1)Cc1ccccc1`, the IC50 [15] is reported as 10.8 µM (inactive), the IC50 [11] is reported as > 32 µM (inactive) and the IC50 (Mu-type opioid receptor) is reported as 12.6 µM (inactive). For the same compound, the IC50 [14] was 16.3 µM (inactive).
For `Cc1ccccc1C(=O)N1CCC(C(=O)Nc2ccc(C)c(S(=O)(=O)N3CCCCC3)c2)CC1`, the EC50 (Integrin alpha-L) was 29.1 µM (inactive).
In the case of `O=C(CN1CC[n+]2c(-c3cccs3)csc21)c1ccc(Br)cc1`, the IC50 [16] is reported as 14.8 µM (inactive) and the IC50 (Perilipin-1/ABHD5) is reported as 27.5 µM (inactive).
